Consider 21 molecules from patent US8741899B2, “(4-chloro-2-fluoro-N-(2-fluorophenyl)-5-[(8aR)-hexahydropyrrolo-[1,2-a]pyrazin-2(1H)-ylcarbonyl]-benzenesulfonamide, and pharmaceutically acceptable salts thereof” (AbbVie Inc., priority 2009, dated 2014).

SMILES strings stand for the structures. Where only a bound is given, the exact number is not on record here.

One experiment has as its system Sprague Dawley rats. The experiment in a line: Capsaicin induced secondary mechanical hyperalgesia model. As to conditions: rat, 60 minutes before testing, secondary mechanical hyperalgesia 180 minutes after capsaicin, von Frey filaments. Format: in vivo. The procedure:
(ii) In Vivo Data—Capsaicin Induced Secondary Mechanical Hyperalgesia Model:
Sprague Dawley rats were briefly restrained, and capsaicin was administered at 10 μg in 10 μL of vehicle by intraplantar injection into the center of the right hind paw. Secondary mechanical hyperalgesia (SMH) was measured at the heel away from the site of injection 180 minutes following capsaicin exposure. Compounds and gabapentin (positive control), were administered p.o. 60 minutes before testing (2 hours after capsaicin) or i.p. 30 minutes before testing (2.5 hours after capsaicin). SMH was measured using calibrated von Frey filaments (Stoelting, Woodale, Ill.). Following the 1 hour habituation in the testing room, rats were moved to individual plexiglass chambers that sit on top of a wire mesh to allow for access for stimulation of the plantar surface of the hind paws. Rats were allowed to acclimate to the new chambers for 15 minutes before the onset of testing. The paw withdrawal threshold was determined by increasing and decreasing stimulus intensity (force: g) and calculated using Dixon's up-down method (Chaplan, S. R.; Bach, F. W.; Pogrel, J. W.; Chung, J. M.; Yaksh, T. L.; Quantitative assessment of tactile allodynia in the rat paw. J. Neuroscience Methods 1994, 53(1), 55-63). The filaments (maximum force of 15.0 g) were held in place for 8 seconds or until there was a withdrawal response from the mechanical stimulation.

The target in a further experiment is T1, Human Cav3.2 Channels (Homo sapiens, UniProt O95180).
T1 construct: expressed in transfected cells
T1 sequence (O95180 whole entry): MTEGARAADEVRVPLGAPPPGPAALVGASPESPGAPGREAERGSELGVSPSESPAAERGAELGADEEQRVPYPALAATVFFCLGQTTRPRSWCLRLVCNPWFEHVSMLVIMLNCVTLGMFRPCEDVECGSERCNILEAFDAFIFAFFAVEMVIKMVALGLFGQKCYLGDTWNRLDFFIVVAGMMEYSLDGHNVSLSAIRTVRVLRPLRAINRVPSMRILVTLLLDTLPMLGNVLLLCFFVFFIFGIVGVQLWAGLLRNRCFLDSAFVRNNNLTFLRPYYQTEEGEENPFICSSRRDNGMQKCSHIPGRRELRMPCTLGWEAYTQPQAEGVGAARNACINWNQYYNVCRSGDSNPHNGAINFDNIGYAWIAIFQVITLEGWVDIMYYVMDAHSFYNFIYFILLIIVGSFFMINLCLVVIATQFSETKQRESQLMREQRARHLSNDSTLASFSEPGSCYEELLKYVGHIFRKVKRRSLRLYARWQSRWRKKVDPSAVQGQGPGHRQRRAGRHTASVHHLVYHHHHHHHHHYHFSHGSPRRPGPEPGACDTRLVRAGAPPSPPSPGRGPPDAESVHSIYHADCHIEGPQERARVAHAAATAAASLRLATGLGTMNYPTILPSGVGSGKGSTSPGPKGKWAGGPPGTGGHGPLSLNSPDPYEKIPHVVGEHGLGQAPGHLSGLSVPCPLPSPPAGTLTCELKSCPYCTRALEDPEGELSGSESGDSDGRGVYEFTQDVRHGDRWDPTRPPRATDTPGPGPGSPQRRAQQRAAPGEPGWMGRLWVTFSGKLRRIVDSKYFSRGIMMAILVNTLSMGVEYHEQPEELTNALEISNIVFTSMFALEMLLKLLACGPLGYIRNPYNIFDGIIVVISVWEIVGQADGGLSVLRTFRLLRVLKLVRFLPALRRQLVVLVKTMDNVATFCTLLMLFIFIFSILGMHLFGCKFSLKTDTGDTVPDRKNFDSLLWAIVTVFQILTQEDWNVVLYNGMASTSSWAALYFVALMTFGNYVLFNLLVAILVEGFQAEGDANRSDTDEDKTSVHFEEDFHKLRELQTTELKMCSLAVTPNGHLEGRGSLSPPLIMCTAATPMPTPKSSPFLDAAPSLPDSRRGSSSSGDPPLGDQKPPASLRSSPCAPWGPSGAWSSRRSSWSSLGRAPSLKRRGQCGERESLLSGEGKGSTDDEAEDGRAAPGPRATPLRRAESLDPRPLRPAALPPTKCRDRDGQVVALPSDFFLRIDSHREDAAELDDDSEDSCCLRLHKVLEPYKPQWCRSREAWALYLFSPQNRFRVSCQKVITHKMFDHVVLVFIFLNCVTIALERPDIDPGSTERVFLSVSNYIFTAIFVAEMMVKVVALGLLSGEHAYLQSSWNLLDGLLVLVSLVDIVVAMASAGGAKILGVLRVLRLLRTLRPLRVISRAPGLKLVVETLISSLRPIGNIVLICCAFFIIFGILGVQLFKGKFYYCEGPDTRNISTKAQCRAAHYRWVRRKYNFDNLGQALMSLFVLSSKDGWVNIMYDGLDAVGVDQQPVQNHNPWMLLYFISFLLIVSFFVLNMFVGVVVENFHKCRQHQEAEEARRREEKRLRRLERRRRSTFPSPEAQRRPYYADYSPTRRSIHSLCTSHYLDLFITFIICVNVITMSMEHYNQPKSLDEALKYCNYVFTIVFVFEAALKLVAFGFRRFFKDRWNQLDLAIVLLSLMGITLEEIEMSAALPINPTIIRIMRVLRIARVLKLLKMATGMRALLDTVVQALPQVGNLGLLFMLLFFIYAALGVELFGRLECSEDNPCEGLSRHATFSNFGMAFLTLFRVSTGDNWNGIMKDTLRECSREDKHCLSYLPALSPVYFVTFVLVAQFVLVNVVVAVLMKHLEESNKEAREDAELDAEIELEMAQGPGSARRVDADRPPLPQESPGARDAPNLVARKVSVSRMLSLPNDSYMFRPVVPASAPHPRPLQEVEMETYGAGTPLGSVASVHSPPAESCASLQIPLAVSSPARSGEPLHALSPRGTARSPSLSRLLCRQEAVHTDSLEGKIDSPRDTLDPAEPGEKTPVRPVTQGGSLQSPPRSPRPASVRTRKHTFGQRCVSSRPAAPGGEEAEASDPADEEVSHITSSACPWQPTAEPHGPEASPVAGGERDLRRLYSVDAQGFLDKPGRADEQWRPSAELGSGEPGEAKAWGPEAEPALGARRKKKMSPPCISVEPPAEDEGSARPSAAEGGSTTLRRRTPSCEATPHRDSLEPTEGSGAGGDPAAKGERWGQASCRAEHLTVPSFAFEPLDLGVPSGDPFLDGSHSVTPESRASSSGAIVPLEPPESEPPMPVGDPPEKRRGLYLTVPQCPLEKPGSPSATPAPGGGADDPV
Briefly: Electrophysiologic (whole-cell patch-clamp) assessment of calcium channel activity in HEK293 cells stably expressing hCav3.2. Format: cell-based. As to conditions: −77 mV, geometric mean, read-out: Human Cav3.2 −77 mV IC50 (μM) GeoMean. The procedure:
(i) In Vitro Methods—Electrophysiologic Assessment of Calcium Channel Activity:
Patch-clamp recordings were performed using HEK293 cells stably expressing hCav3.2. Cells were plated in T175 flasks and grown at 37° C. and under 5% CO2 to approximately 50% confluency. On the day of the experiment, cells were harvested with Detachin™ cell detachment solution (Genlantis, San Diego, Calif.) and maintained in serum-free culture medium supplemented with 25 mM HEPES up to several hours prior to experiment. Whole-cell patch-clamp recordings were obtained using extracellular saline consisting of (mM): 87.5 CsCl, 40 TEA-Cl, 5 CaCl2, 1 MgCl2, 10 HEPES, 10 glucose. The pH was adjusted to 7.2 with CsOH and the osmolarity was adjusted to approximately 310 mOsm with sucrose. Intracellular solution consisted of (mM): 112 CsCl, 27 CsF, 2 NaCl, 8.2 EGTA, 10 HEPES. Prior to an experiment 4 mM Mg2ATP was added and the pH was adjusted to 7.2 with CsOH with an osmolarity of approximately 290 mOsm. A two-pulse voltage protocol was utilized to assess compound inhibition. First, cells were held with an 8 s pre-pulse at −100 mV prior to a 160 ms test pulse to −30 mV. This was followed by an 8 s pre-pulse at approximately −75 mV prior to a […]. Increasing concentrations of antagonist were applied to individual cells in a multi-addition format with 5 minutes in each test concentration. For each cell, responses were normalized to dimethyl sulfoxide vehicle control to generate concentration-response curves.

With `O=C(c1cc(S(=O)(=O)Nc2ccccc2F)c(Cl)cc1Cl)N1CCN2CCC[C@@H]2C1` [Example 64, 2,4-dichloro-N-(2-fluorophenyl)-5-[(8aR)-hexahydropyrrolo[1,2-a]pyrazin-2(1H)-ylcarbonyl]benzenesulfonamide], in the experiment with Sprague Dawley rats, the “Inhibition to Pain Response, % inhibition @ 30 mg/kg p.o.” value was determined as 57%. Moreover, on Human Cav3.2 Channels, the IC50 came to 1.7 µM. As to `O=C(c1cccc(S(=O)(=O)Nc2ccccc2F)c1)N1CCN2CCC[C@@H]2C1` [Example 2, N-(2-fluorophenyl)-3-[(8aR)-hexahydropyrrolo[1,2-a]pyrazin-2(1H)-ylcarbonyl]benzenesulfonamide], the “Inhibition to Pain Response, % inhibition @ 30 mg/kg p.o.” value with Sprague Dawley rats was 58%. Further, the half-maximal inhibitory concentration (IC50) on Human Cav3.2 Channels is 10.6 µM. On to `O=C(c1cc(S(=O)(=O)Nc2ccccc2F)c(F)cc1Cl)N1CCN2CCC[C@@H]2C1` [Example 20, 4-chloro-2-fluoro-N-(2-fluorophenyl)-5-[(8aR)-hexahydropyrrolo[1,2-a]pyrazin-2(1H)-ylcarbonyl]benzenesulfonamide], for which, in the experiment with Sprague Dawley rats, the “Inhibition to Pain Response, % inhibition @ 30 mg/kg p.o.” value is reported as 43%. At Human Cav3.2 Channels, the IC50 was 6 µM. Turning to `O=C(c1cccc(S(=O)(=O)Nc2cccc(F)c2)c1)N1CCN2CCC[C@H]2C1` [Example 3, N-(3-fluorophenyl)-3-[(8aS)-hexahydropyrrolo[1,2-a]pyrazin-2(1H)-ylcarbonyl]benzenesulfonamide], in the experiment with Sprague Dawley rats, the “Inhibition to Pain Response, % inhibition @ 30 mg/kg p.o.” value was found to be 44%. The concentration for half-maximal inhibition (IC50) on Human Cav3.2 Channels is 5.9 µM. With `O=C(c1cccc(S(=O)(=O)N2CCN(C(c3ccc(F)cc3)c3ccc(F)cc3)CC2)c1)N1CCN2CCC[C@@H]2C1` [Example 22, (8aR)-2-[3-({4-[bis(4-fluorophenyl)methyl]piperazin-1-yl}sulfonyl)benzoyl]octahydropyrrolo[1,2-a]pyrazine], the IC50 at Human Cav3.2 Channels was 1.4 µM. Turning to `O=C(c1cccc(S(=O)(=O)Nc2c(F)cccc2F)c1)N1CCN2CCC[C@H]2C1` [Example 4, N-(2,6-difluorophenyl)-3-[(8aS)-hexahydropyrrolo[1,2-a]pyrazin-2(1H)-ylcarbonyl]benzenesulfonamide], the concentration for half-maximal inhibition (IC50) at Human Cav3.2 Channels amounted to 7.7 µM. On the same count and under the same terms, as for `O=C(c1cccc(S(=O)(=O)N2CCN3CCC[C@@H]3C2)c1)N1CCN(C(c2ccc(F)cc2)c2ccc(F)cc2)CC1` [Example 50, (8aR)-2-{[3-({4-[bis(4-fluorophenyl)methyl]piperazin-1-yl}carbonyl)phenyl]sulfonyl}octahydropyrrolo[1,2-a]pyrazine], the figure is 0.6 µM; as for `O=C(c1cccc(S(=O)(=O)Nc2ccccc2F)c1)N1CCC(N2CCCCC2)CC1` [Example 47, 3-(1,4′-bipiperidin-1′-ylcarbonyl)-N-(2-fluorophenyl)benzenesulfonamide], 3.8 µM; as for `O=C(c1cccc(S(=O)(=O)Nc2ccc(F)cc2F)c1)N1CCN2CCC[C@H]2C1` [Example 16, N-(2,4-difluorophenyl)-3-[(8aS)-hexahydropyrrolo[1,2-a]pyrazin-2(1H)-ylcarbonyl]benzenesulfonamide], 6 µM. Consider `O=C(c1cccc(S(=O)(=O)NCCc2ccc(F)cc2)c1)N1CCN2CCC[C@H]2C1` [Example 33, N-[2-(4-fluorophenyl)ethyl]-3-[(8aS)-hexahydropyrrolo[1,2-a]pyrazin-2(1H)-ylcarbonyl]benzenesulfonamide], for which, on Human Cav3.2 Channels, the IC50 worked out at 5.7 µM. Still for that read-out and setting: for `O=C(c1cccc(S(=O)(=O)Nc2ccccc2F)c1)N1CCN2CCCCC2C1` (stereo not drawn) [Example 39, N-(2-fluorophenyl)-3-(octahydro-2H-pyrido[1,2-a]pyrazin-2-ylcarbonyl)benzenesulfonamide] the value was 4.1 µM. With `O=C(c1cccc(S(=O)(=O)Nc2ccc(C(F)(F)F)cc2)c1)N1CCN2CCCCC2C1` (stereo not drawn) [Example 37, 3-(octahydro-2H-pyrido[1,2-a]pyrazin-2-ylcarbonyl)-N-[4-(trifluoromethyl)phenyl]benzenesulfonamide], the “Inhibition to Pain Response, % inhibition @ 30 mg/kg p.o.” value in the experiment on Sprague Dawley rats turned out to be 63%. For the same molecule, the IC50 at Human Cav3.2 Channels was determined as 1.1 µM. For the molecule `O=C(c1cccc(S(=O)(=O)Nc2ccc(F)cc2)c1)N1CCC(N2CCCC2)CC1` [Example 40, N-(4-fluorophenyl)-3-[(4-pyrrolidin-1-ylpiperidin-1-yl)carbonyl]benzenesulfonamide], on Human Cav3.2 Channels, the IC50 came to 4.1 µM. Regarding `CN(c1ccccc1F)S(=O)(=O)c1cc(C(=O)N2CCN3CCC[C@@H]3C2)c(Cl)cc1F` [Example 66, 4-chloro-2-fluoro-N-(2-fluorophenyl)-5-[(8aR)-hexahydropyrrolo[1,2-a]pyrazin-2(1H)-ylcarbonyl]-N-methylbenzenesulfonamide], the IC50 at Human Cav3.2 Channels is 5.9 µM. With `O=C(c1ccc(Cl)c(NC(c2ccccc2)c2ccccc2)c1)N1CCN2CCC[C@@H]2C1` [Example 79, N-benzhydryl-N-{2-chloro-5-[(8aR)-hexahydropyrrolo[1,2-a]pyrazin-2(1H)-ylcarbonyl]phenyl}amine], on Human Cav3.2 Channels, the IC50 stood at 8.5 µM. Consider `O=C(c1cccc(S(=O)(=O)Nc2cccc(F)c2)c1)N1CCC(N2CCCCC2)CC1` [Example 48, 3-(1,4′-bipiperidin-1′-ylcarbonyl)-N-(3-fluorophenyl)benzenesulfonamide], for which the IC50 on Human Cav3.2 Channels is more than 10 µM. As to `O=C(c1ccc(Cl)c(S(=O)(=O)Nc2ccc(C(F)(F)F)cc2)c1)N1CCN2CCC[C@@H]2C1` [Example 34, 2-chloro-5-[(8aR)-hexahydropyrrolo[1,2-a]pyrazin-2(1H)-ylcarbonyl]-N-[4-(trifluoromethyl)phenyl]benzenesulfonamide], the IC50 at Human Cav3.2 Channels turned out to be 6.2 µM.

For `Cc1cc(C(=O)N2CCN3CCC[C@@H]3C2)ccc1NC(=O)c1ccc2ccccc2c1` [Example 72, N-{4-[(8aR)-hexahydropyrrolo[1,2-a]pyrazin-2(1H)-ylcarbonyl]-2-methylphenyl}-2-naphthamide], at Human Cav3.2 Channels, the IC50 is more than 10 µM.

For `O=C(c1cccc(NC(c2ccccc2)c2ccccc2)c1)N1CCN2CCC[C@@H]2C1` [Example 80, N-benzhydryl-N-{3-[(8aR)-hexahydropyrrolo[1,2-a]pyrazin-2(1H)-ylcarbonyl]phenyl}amine], the 50% inhibitory concentration (IC50) at Human Cav3.2 Channels was 2 µM. For `O=C(c1cccc(S(=O)(=O)Nc2c(F)cccc2F)c1)N1CCN2CCC[C@@H]2C1` [Example 13, N-(2,6-difluorophenyl)-3-[(8aR)-hexahydropyrrolo[1,2-a]pyrazin-2(1H)-ylcarbonyl]benzenesulfonamide], the “Inhibition to Pain Response, % inhibition @ 30 mg/kg p.o.” value with Sprague Dawley rats was 37%. For the same molecule, the IC50 on Human Cav3.2 Channels worked out at 5.6 µM. Take `O=C(c1cccc(S(=O)(=O)NCCC(c2ccccc2)c2ccccc2)c1)N1CCN2CCC[C@@H]2C1` [Example 29, N-(3,3-diphenylpropyl)-3-[(8aR)-hexahydropyrrolo[1,2-a]pyrazin-2(1H)-ylcarbonyl]benzenesulfonamide]: the half-maximal inhibitory concentration (IC50) on Human Cav3.2 Channels was 2.1 µM.
